According to ChEMBL document CHEMBL5724914, “Linking interpersonal differences in gut microbiota composition and drug biotransformation activity” (2024):

How the values were obtained:
[1] = human gut metagenome, 24 h, 2 µM
[2] = (§1) The drug is tested on WLS-098 corresponding to human gut metagenome with ENA study accession number: PRJEB37062 and ENA sample accession number: ERS12561754 for biotransformation under anaerobic condition. The drug concentrations were measured over 9 timepoints collected between 0 and 24 hours of incubation by liquid-chromatography-coupled mass spectrometry (LC–MS); settings: 2 µM
[3] = human gut metagenome, 24 h, 2 µM; remark: listed apart in the source
[4] = human gut metagenome, 24 h, 2 µM; remark: listed apart in the source
[5] = human gut metagenome, 24 h, 2 µM; remark: listed apart in the source
[6] = human gut metagenome, 24 h, 2 µM; remark: listed apart in the source
[7] = human gut metagenome, 24 h, 2 µM; remark: listed apart in the source
[8] = as §1, with “Z-003” for “WLS-098”, “pig” for “human”, “ERS12561803” for “ERS12561754”; settings: 2 µM
[9] = as §1, with “Z-005” for “WLS-098”, “to” for “to human gut”, “ERS12561805” for “ERS12561754”; settings: 2 µM
[10] = human gut metagenome, 24 h, 2 µM; remark: listed apart in the source
[11] = as §1, with “WLS-090” for “WLS-098”, “ERS12561753” for “ERS12561754”; settings: 2 µM
[12] = as §1, with “WLS-370” for “WLS-098”, “ERS12561793” for “ERS12561754”; settings: 2 µM
[13] = as §1, with “Z-009” for “WLS-098”, “pig” for “human”, “ERS12561809” for “ERS12561754”; settings: 2 µM
[14] = human gut metagenome, 24 h, 2 µM; remark: listed apart in the source
[15] = human gut metagenome, 24 h, 2 µM; remark: listed apart in the source
[16] = human gut metagenome, 24 h, 2 µM; remark: listed apart in the source
[17] = human gut metagenome, 24 h, 2 µM; remark: listed apart in the source
[18] = as §1, with “WLS-038” for “WLS-098”, “ERS12561745” for “ERS12561754”; settings: 2 µM
[19] = human gut metagenome, 24 h, 2 µM; remark: listed apart in the source
[20] = as §1, with “Z-020” for “WLS-098”, “rabbit” for “human”, “ERS12561819” for “ERS12561754”; settings: 2 µM
Also: call rule not given here.

SMILES	Bacterial Biotransformation [1]	Bacterial Biotransformation [2]	Bacterial Biotransformation [3]	Bacterial Biotransformation [4]	Bacterial Biotransformation [5]	Bacterial Biotransformation [6]	Bacterial Biotransformation [7]	Bacterial Biotransformation [8]	Bacterial Biotransformation [9]	Bacterial Biotransformation [10]	Bacterial Biotransformation [11]	Bacterial Biotransformation [12]	Bacterial Biotransformation [13]	Bacterial Biotransformation [14]	Bacterial Biotransformation [15]	Bacterial Biotransformation [16]	Bacterial Biotransformation [17]	Bacterial Biotransformation [18]	Bacterial Biotransformation [19]	Bacterial Biotransformation [20]
CCOc1ccccc1OCCN[C@H](C)Cc1ccc(OC)c(S(N)(=O)=O)c1.Cl [TAMSULOSIN HYDROCHLORIDE]	Compound NOT metabolized	Compound metabolized	Compound metabolized	Compound NOT metabolized	Compound NOT metabolized	Compound NOT metabolized	Compound NOT metabolized	Compound metabolized	Compound NOT metabolized	Compound metabolized	Compound metabolized	Compound NOT metabolized	Compound NOT metabolized	Compound NOT metabolized	Compound NOT metabolized	Compound NOT metabolized	Compound NOT metabolized	Compound NOT metabolized	Compound NOT metabolized	Compound NOT metabolized
COc1cc2nc(N3CCN(C(=O)C4CCCO4)CC3)nc(N)c2cc1OC (stereo not given) [TERAZOSIN]	Compound metabolized	Compound metabolized	Compound metabolized	Compound NOT metabolized	Compound NOT metabolized	Compound NOT metabolized	Compound NOT metabolized	Compound NOT metabolized	Compound metabolized	Compound metabolized	Compound metabolized	Compound NOT metabolized	Compound metabolized	Compound metabolized	Compound NOT metabolized	Compound NOT metabolized	Compound NOT metabolized	Compound NOT metabolized	Compound NOT metabolized	Compound NOT metabolized
c1ccc2[nH]c(-c3cscn3)nc2c1 [THIABENDAZOLE]	Compound NOT metabolized	Compound metabolized	Compound metabolized	Compound NOT metabolized	Compound NOT metabolized	Compound NOT metabolized	Compound NOT metabolized	Compound NOT metabolized	Compound NOT metabolized	Compound metabolized	Compound metabolized	Compound NOT metabolized	Compound NOT metabolized	Compound NOT metabolized	Compound NOT metabolized	Compound NOT metabolized	Compound NOT metabolized	Compound NOT metabolized	Compound NOT metabolized	Compound NOT metabolized
CCN(CC)CCNC(=O)c1cc(S(C)(=O)=O)ccc1OC [TIAPRIDE]	Compound metabolized	Compound metabolized	Compound metabolized	Compound NOT metabolized	Compound NOT metabolized	Compound NOT metabolized	Compound metabolized	Compound metabolized	Compound NOT metabolized	Compound metabolized	Compound metabolized	Compound NOT metabolized	Compound NOT metabolized	Compound NOT metabolized	Compound NOT metabolized	Compound NOT metabolized	Compound NOT metabolized	Compound NOT metabolized	Compound NOT metabolized	Compound NOT metabolized
CC(C)(C)NC[C@H](O)COc1nsnc1N1CCOCC1.O=C(O)/C=C\C(=O)O [TIMOLOL MALEATE]	Compound NOT metabolized	Compound NOT metabolized	Compound NOT metabolized	Compound NOT metabolized	Compound NOT metabolized	Compound NOT metabolized	Compound NOT metabolized	Compound NOT metabolized	Compound NOT metabolized	Compound NOT metabolized	Compound NOT metabolized	Compound NOT metabolized	Compound NOT metabolized	Compound NOT metabolized	Compound NOT metabolized	Compound NOT metabolized	Compound NOT metabolized	Compound NOT metabolized	Compound NOT metabolized	Compound NOT metabolized
CC[C@@]1(O)C(=O)OCc2c1cc1n(c2=O)Cc2cc3c(CN(C)C)c(O)ccc3nc2-1 [TOPOTECAN]	Compound NOT metabolized	Compound NOT metabolized	Compound NOT metabolized	Compound NOT metabolized	Compound NOT metabolized	Compound NOT metabolized	Compound NOT metabolized	Compound NOT metabolized	Compound NOT metabolized	Compound NOT metabolized	Compound NOT metabolized	Compound NOT metabolized	Compound NOT metabolized	Compound NOT metabolized	Compound NOT metabolized	Compound NOT metabolized	Compound NOT metabolized	Compound NOT metabolized	Compound NOT metabolized	Compound NOT metabolized
COc1cc(C(=O)NCc2ccc(OCCN(C)C)cc2)cc(OC)c1OC [TRIMETHOBENZAMIDE]	Compound NOT metabolized	Compound NOT metabolized	Compound NOT metabolized	Compound NOT metabolized	Compound NOT metabolized	Compound NOT metabolized	Compound NOT metabolized	Compound NOT metabolized	Compound NOT metabolized	Compound NOT metabolized	Compound NOT metabolized	Compound NOT metabolized	Compound metabolized	Compound NOT metabolized	Compound NOT metabolized	Compound NOT metabolized	Compound NOT metabolized	Compound NOT metabolized	Compound NOT metabolized	Compound NOT metabolized
COc1ccc(C(CN(C)C)C2(O)CCCCC2)cc1 (stereo not given) [VENLAFAXINE]	Compound NOT metabolized	Compound NOT metabolized	Compound metabolized	Compound NOT metabolized	Compound NOT metabolized	Compound NOT metabolized	Compound NOT metabolized	Compound NOT metabolized	Compound NOT metabolized	Compound metabolized	Compound NOT metabolized	Compound NOT metabolized	Compound NOT metabolized	Compound NOT metabolized	Compound NOT metabolized	Compound NOT metabolized	Compound NOT metabolized	Compound NOT metabolized	Compound NOT metabolized	Compound NOT metabolized
